The values that follow are results of earlier work, collected in paper PMC8198792, “Prediction of Anticancer Peptides with High Efficacy and Low Toxicity by Hybrid Model Based on 3D Structure of Peptides” (International Journal of Molecular Sciences, 2021).

Read-outs that look alike come from different tables or passages of the source.

The subject of the data set is cancer cell lines. Details: method as in 6 sources, ref CancerPPD [45] and SATPdb ||| ref CancerPPD/SATPdb ||| ref CancerPPD, SATPdb, Swissprot (PDB) ||| ref CancerPPD/SATPdb/Swissprot(PDB) ||| ref CancerPPD / SATPdb ||| ... The following applies: cited from earlier work. An excerpt: Supplement ijms-22-05630-s001.zip/ACPs(seguence).xlsx, sheet "D1" | column: Activity || Supplement ijms-22-05630-s001.zip/ACPs(seguence).xlsx, sheet "D2" | column: Activity || Supplement ijms-22-05630-s001.zip/ACPs(seguence).xlsx, sheet "D3" | column: Activity || (+ 2 further places)

The mark [1] stands for this setting: ACPs dataset D3 (supplement sheet "D3"), 1 = ACP, 0 = non-ACP, ref CancerPPD [45] and SATPdb.
Where [2] appears, read: ACPs dataset D4 (sheet "D4"), label 1 = ACP (CancerPPD ID), 0 = non-ACP (non-anticancer AMP, SATPdb ID), ref CancerPPD [45] and SATPdb.
Where [3] appears, read: ACPs dataset D5 (sheet "D5"), label 1 = ACP (positive set), 0 = non-ACP (negative set), ref CancerPPD [45] and SATPdb.
[4] abbreviates: ACPs dataset D3 (sheet "D3"), label 1 = ACP, 0 = non-ACP, ref CancerPPD/SATPdb.
Setting [5] is: ACPs dataset D4 (sheet "D4"), label 1 = ACP, 0 = non-ACP, ref CancerPPD / SATPdb.
Setting [6] is: ACPs dataset D5, sheet "D5", label 1 = ACP, 0 = non-ACP, ref CancerPPD [45] and SATPdb.
[7] abbreviates: ACPs dataset D1, 1 = ACP (positive), 0 = non-ACP (negative), label taken from databases, ref CancerPPD [45] and SATPdb.
[8] abbreviates: ACPs dataset D4 (sheet "D4"), label 1 = ACP, experimentally validated ACPs, ref CancerPPD [45] and SATPdb.
The mark [9] stands for this setting: ACPs dataset D5 (sheet "D5"), label 1 = ACP (positive set), sequences with CancerPPD/SATPdb ID, ref CancerPPD, SATPdb.
The mark [10] stands for this setting: ACPs dataset sheet D2, 1 = ACP (CancerPPD/SATPdb ID), 0 = non-ACP (Swissprot/PDB ID), ref CancerPPD, SATPdb, Swissprot (PDB).
[11] abbreviates: ACPs dataset D1, label 1 = ACP, 0 = non-ACP (non-anticancer AMPs from SATPdb), ref CancerPPD/SATPdb.

Consider “KWKSFLKTFKSLKKTVLHTLLkAISS [compound 3767]”, for which the Activity is recorded as 1 under setting [1], 1 under setting [2] and 1 under setting [3].

Consider GILGKLWEGFKSIV [satpdb13792], for which the Activity was 0 under setting [4], 0 under setting [5] and 0 under setting [6].

For the substance FLGALFHALSKLL [compound 3266], the Activity under setting [7] is recorded as 1, the Activity under setting [8] is on record as 1, the Activity under setting [9] is recorded as 1 and the Activity under setting [10] is reported as 1.

On to GLFAVIKKVAAVIRRL [compound 4129], for which the Activity is 1 under setting [1], 1 under setting [2] and 1 under setting [3].

On to DRSTREPIYMSTI [satpdb20500], for which the Activity reads like this: under setting [7], 1; under setting [8], 1; under setting [9], 1; under setting [10], 1.

With “KWKIFKKIEHMGQNIRDGLIKAGPAVQVVGQAATIYKG [satpdb11253]”, the Activity under setting [7] is recorded as 0 and the Activity under setting [2] is 0.

For the substance SLIPHAINAVSAIAKHF [satpdb12892], the Activity is on record as 0 under setting [4], 0 under setting [5] and 0 under setting [6].

As for GLFDIVKKVVGAIGSL [compound 4407], the Activity by setting is: under setting [7], 1; under setting [8], 1; under setting [9], 1; under setting [10], 1.

For KWKLFKKIPKFLHLAKKF [compound 3290], the Activity is, setting by setting: under setting [7], 1; under setting [8], 1; under setting [9], 1; under setting [10], 1.

TGASSEEEDPF [satpdb18128]: the Activity reads like this: under setting [7], 1; under setting [8], 1; under setting [9], 1; under setting [10], 1.

For GWLPTFGKILRKAMQLGPKLIQPI [satpdb12473], the Activity under setting [11] is recorded as 0 and the Activity under setting [2] was 0.

KWKLFKKIPKFLHLA [compound 1134]: the Activity under setting [1] is on record as 1, the Activity under setting [2] is reported as 1 and the Activity under setting [3] is on record as 1.

As to “MPCSCKKYCDPWEVIDGSCGLFNSKYICCREK [1EWS NMR - A 1-32]”, the Activity by setting is: under setting [3], 0; under setting [10], 0.

With ILGKIWKIKKLF [satpdb10262], the Activity under setting [7] is 0 and the Activity under setting [2] is given as 0.

With FLPIIGQLLSGLL [satpdb10701], the Activity is 0 under setting [1], 0 under setting [5] and 0 under setting [6].

Regarding “GSKKPVPIIY CNRRTGKCQR M [5XO4 NMR - A 1-21]”, the Activity under setting [3] is listed as 0 and the Activity under setting [10] was 0.

On to VIFEWTLLQVLSESDQDQSLEVFLT [satpdb18497], for which the Activity by setting is: under setting [7], 1; under setting [8], 1; under setting [9], 1; under setting [10], 1.

In the case of “QRACPRILKK CRRDSDCPGE CICKENGYCG [2LJS NMR - A 1-30]”, the Activity is 0 under setting [3] and 0 under setting [10].

Regarding FLPLIGKILGTILGK [satpdb11777], the Activity is recorded as 0 under setting [11] and 0 under setting [2].

On to KIKSCYYLPCFVTS [satpdb14785], for which the Activity is, setting by setting: under setting [7], 1; under setting [8], 1; under setting [9], 1; under setting [10], 1.

Consider KNWKAILKHIIK [satpdb13480], for which the Activity is reported as 0 under setting [4], 0 under setting [5] and 0 under setting [6].

Consider ILPFKFPFFPFRR [satpdb11203], for which the Activity is, setting by setting: under setting [7], 0; under setting [2], 0.

Regarding PPPEE [compound 1426], the Activity is, setting by setting: under setting [1], 1; under setting [2], 1; under setting [3], 1.

As for SPWSPCSGNCSTGKQQRTR [satpdb11308], the Activity is reported as 1 under setting [7], 1 under setting [8], 1 under setting [9] and 1 under setting [10].

In the case of IFGAILPLAL GALKNLIK [2N0O NMR - A 1-18], the Activity is listed as 0 under setting [3] and 0 under setting [10].

Regarding GLFAVIKKVASVIKKL [compound 4111], the Activity reads like this: under setting [1], 1; under setting [2], 1; under setting [3], 1.

FLPVIAGLAAKVLPKLFCAITKKC [satpdb12195]: the Activity by setting is: under setting [11], 0; under setting [2], 0.

For LLGMIPLAISAISALSKL [compound 4453], the Activity is on record as 1 under setting [7], 1 under setting [8], 1 under setting [9] and 1 under setting [10].

Regarding VOLOfPVOLfP [satpdb12074], the Activity by setting is: under setting [4], 0; under setting [5], 0; under setting [6], 0.

For MASRAARLAARLARLALRAL [satpdb10584], the Activity runs as follows: under setting [7], 0; under setting [2], 0.

“GIFSLIKGAAKLITKTVAKEAGKTGLELMACKVTNQC [satpdb12414]”: the Activity reads like this: under setting [11], 0; under setting [2], 0.

As to FLGALAKIISGIF [satpdb11200], the Activity reads like this: under setting [7], 0; under setting [2], 0.

On to FLGGLMKAFPAIICAVTKKC [satpdb13214], for which the Activity under setting [11] was 0 and the Activity under setting [5] is given as 0.

With ILPILSLIGGLLGK [compound 4439], the Activity is reported as 1 under setting [7], 1 under setting [8], 1 under setting [9] and 1 under setting [10].

Regarding KWKLFAKIGIGKFLHLAKKF [compound 1837], the Activity by setting is: under setting [1], 1; under setting [2], 1; under setting [3], 1.

Consider GLFDVIKKVAAVIGGL [compound 4066], for which the Activity was 1 under setting [1], 1 under setting [2] and 1 under setting [3].

“IYSFDGRDIMTDPSWPQKVIWHGSSPHGVRLVDNYCEAWRTA [satpdb23000]”: the Activity is listed as 1 under setting [7], 1 under setting [8], 1 under setting [9] and 1 under setting [10].

Regarding FLKLLKKLAAKLF [compound 1005], the Activity is reported as 1 under setting [7], 1 under setting [8], 1 under setting [9] and 1 under setting [10].

Turning to “RRPKGRGKRRREKQRPTDCHLCGDAVPRR [satpdb17014]”, the Activity is, setting by setting: under setting [7], 1; under setting [8], 1; under setting [9], 1; under setting [10], 1.

For the substance TSWSQCSKTCGTGISTRV [satpdb19109], the Activity reads like this: under setting [7], 1; under setting [8], 1; under setting [9], 1; under setting [10], 1.

Take KVMAHMK [satpdb14375]: the Activity under setting [4] is reported as 0, the Activity under setting [5] is recorded as 0 and the Activity under setting [6] is 0.

“GILDKLKEFGISAARGVAQSLLNTTASCKLAKTC [satpdb13132]”: the Activity is 0 under setting [11] and 0 under setting [5].

For RGGRLCYCRRRFCVCVGR [compound 4251], the Activity by setting is: under setting [1], 1; under setting [2], 1; under setting [3], 1.

KAAKKAWKWAKKAAKWAKKAA [compound 4479]: the Activity is given as 1 under setting [7], 1 under setting [8], 1 under setting [9] and 1 under setting [10].

With “YITCLFRGARCRVYSGRSCCFGYYCRRDFPGSIFGTCSRRNF [2DCW NMR - A 1-42]”, the Activity runs as follows: (ACPs dataset D2 (supplement ACPs(seguence).xlsx, sheet D2), dataset label 1/0 (ACP / non-ACP), entries identified by Swissprot(PDB ID), ref CancerPPD/SATPdb/Swissprot(PDB)) 0; under setting [3], 0.

As for “GRRKRKWLRRIGKGVKIIGGAALDHL [compound 4351]”, the Activity under setting [1] was 1, the Activity under setting [2] is 1 and the Activity under setting [3] is given as 1.

Consider FLGMIPGLIGGLISAFK [compound 3125], for which the Activity under setting [1] is on record as 1, the Activity under setting [8] was 1 and the Activity under setting [9] was 1.

Turning to FISAIASFLGKFL [satpdb11448], the Activity is 0 under setting [11] and 0 under setting [2].

As to HFLLTKVNLAKKIL [satpdb11375], the Activity is, setting by setting: under setting [1], 0; under setting [5], 0; under setting [6], 0.
